Assays:
[1] = target: T1, Estrogen receptor (Homo sapiens) (UniProt P03372); assay: Displacement of [6,7-3H]17beta-estradiol from human recombinant estrogen receptor-alpha after 18 hrs by liquid scintillation counting analysis
T1 sequence (whole entry): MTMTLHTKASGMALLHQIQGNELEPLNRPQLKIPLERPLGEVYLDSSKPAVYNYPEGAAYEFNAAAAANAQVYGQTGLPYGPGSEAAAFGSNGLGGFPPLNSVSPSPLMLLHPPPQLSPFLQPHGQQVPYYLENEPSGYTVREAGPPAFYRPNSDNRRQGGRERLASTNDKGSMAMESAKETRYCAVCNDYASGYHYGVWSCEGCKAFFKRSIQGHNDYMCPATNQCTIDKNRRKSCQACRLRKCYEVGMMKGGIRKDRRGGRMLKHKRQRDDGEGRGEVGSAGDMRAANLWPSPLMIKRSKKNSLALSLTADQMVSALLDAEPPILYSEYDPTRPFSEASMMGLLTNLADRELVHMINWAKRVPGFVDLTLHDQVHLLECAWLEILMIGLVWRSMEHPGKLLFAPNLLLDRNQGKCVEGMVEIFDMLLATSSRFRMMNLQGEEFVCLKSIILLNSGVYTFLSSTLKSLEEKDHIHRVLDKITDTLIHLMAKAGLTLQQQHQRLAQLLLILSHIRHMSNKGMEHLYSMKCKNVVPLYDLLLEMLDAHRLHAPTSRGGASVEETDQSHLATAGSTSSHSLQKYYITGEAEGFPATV

[2] = target: T1, Estrogen receptor (Homo sapiens); assay: Agonist activity at estrogen receptor in human MCF7 cells assessed as induction of cell proliferation at 1 x 10^-13 to 1 x 10^-5 M after 5 days by WST-8 assay relative to estradiol; assay type: cell-based

CN(C)CCOc1ccc(C23CC4CC(CC(c5ccc(O)cc5)(C4)C2)C3)cc1
inhibition [1]: Dose-dependent effect
Emax [2]: 17%

— ChEMBL document CHEMBL3286276, “Novel estrogen receptor (ER) modulators containing various hydrophobic bent-core structures” (Bioorg Med Chem, 2014)
